Data set [1] relates to TFR-PR^S17 precursor, p6pol/PR^S17 site. In kind it is biochemical, HIV-1. To be noted: p6pol/PR^S17 site.
The next data set concerns the target wild-type PR. To be noted: read-out: Inhibition of PR Ki, published sources, similar values from different sources averaged, ref [48]–[50],[30]; cited from earlier work.
A short description of another data set: physchem. As to conditions: pH 5, aqueous buffer.
Data set [2] has as its system mature PR^S17. The data set is classed as biochemical, HIV-1. To be noted: Ki for PR^S17 (kinetics) / Ki for PR.
The target in data set [3] is TFR-PR^S17 precursor, p6pol/PR^S17 site (Human immunodeficiency virus type 1, UniProt P12497, E523D/G536V/I542V/L578M/M524I/M534L/N525D/V570S, form not given). The data set is classed as biochemical, HIV-1. To be noted: for Inhibition of autoprocessing of TFR-PR^S17, initial screening: after 60 min, overall autoprocessing; for Inhibition of the p6pol/PR site / Autoprocessing in the presence of inhibitor: 60 min.

The target of data set [4] is TFR-PR^S17 precursor, TFP/p6pol site (Human immunodeficiency virus type 1, UniProt P12497, E523D/G536V/I542V/L578M/M524I/M534L/N525D/V570S, form not given). In kind it is biochemical, HIV-1. As to conditions: 60 min.
A further data set relates to TFR-PR20. As to conditions: up to 150 μM inhibitor, expressed in E. coli; ref [16]; cited from earlier work.
For data set [5], the system named is wild type TFR-PR precursor. To be noted: read-out: IC50 for inhibition of autoprocessing of the wild type precursor; during expression in E. coli; ref [16]; cited from earlier work.
In data set [6] the test system is mature PR^S17.
A further data set concerns the target PR20. To be noted: read-out: Ki for PR20; ref [34]; cited from earlier work.
Setting [7] is: inhibitor 70 μM (limit of solubility).

The structures appear in SMILES notation. Values after ≈ are worked out from the molar mass of the structure shown. “Also recorded” adds a separate entry of the source. Where two headings read alike, the source gives them in different places.

For orientation: Ki means a measure of affinity in units of concentration, obtained from inhibition or displacement. Usually solubility stands for the dissolved amount per volume that the medium holds. The low end stands for a poorly soluble substance, the high end for a readily soluble substance. Take `Cc1c(O)cccc1C(=O)N[C@@H](CSc1ccccc1)[C@H](O)CN1C[C@H]2CCCC[C@H]2C[C@H]1C(=O)NC(C)(C)C` [NFV, nelfinavir]: the “Difference in inhibition [autoprocessing, IC50/mature PR^S17, Ki]” value in data set [1] was more than 7.2. For the same molecule, the inhibitory constant (Ki) on wild-type PR was 0.36 nM. Further, in “physchem”, the solubility turned out to be 42 µM (≈ 23.8 µg/mL). The “Relative resistance (PR^S17/PR)” value with mature PR^S17 [2] turned out to be 16300.

Take `Cc1cccc(C)c1OCC(=O)N[C@@H](Cc1ccccc1)[C@@H](O)C[C@H](Cc1ccccc1)NC(=O)[C@H](C(C)C)N1CCCNC1=O` [LPV, lopinavir]: the “Inhibition of autoprocessing of TFR-PR^S17, initial screening” value (“Inhibition … initial screening” below) in data set [3] (inhibitor 50 μM) is listed as “almost no inhibition”. The “Inhibition of the p6pol/PR site” value in data set [3] (setting [7]) was ~ 50%. The “Inhibition of the TFP/p6pol site” value in [4] (setting [7]) is listed as “insignificant inhibition”. Also, the inhibitory constant (Ki) at wild-type PR is 0.02 nM. Further, the solubility in the data set “physchem” came out at 70 µM (≈ 44 µg/mL).

Turning to `CC(C)c1nc(CN(C)C(=O)N[C@H](C(=O)N[C@@H](Cc2ccccc2)C[C@H](O)[C@H](Cc2ccccc2)NC(=O)OCc2cncs2)C(C)C)cs1` [RTV, ritonavir], the “Inhibition … initial screening” value in [3] (inhibitor 50 μM) was “almost no inhibition”.

On to `CC(C)(C)NC(=O)[C@@H]1CN(Cc2cccnc2)CCN1C[C@@H](O)C[C@@H](Cc1ccccc1)C(=O)N[C@H]1c2ccccc2C[C@H]1O` [IDV, indinavir], for which, in [3] (inhibitor 50 μM), the “Inhibition of the p6pol/PR site” value is ~ 50% and the “Inhibition … initial screening” value was “partial inhibition”. In addition, in [4] (inhibitor 50 μM), the “Inhibition of the TFP/p6pol site” value is “insignificant inhibition”. For the same molecule, the Ki at wild-type PR is 0.25 nM.

The term IC50 denotes the midpoint of a concentration-inhibition curve. Take `CC(C)(C)NC(=O)[C@@H]1C[C@@H]2CCCC[C@@H]2CN1C[C@@H](O)[C@H](Cc1ccccc1)NC(=O)[C@H](CC(N)=O)NC(=O)c1ccc2ccccc2n1` [SQV, saquinavir]: in the data set with TFR-PR20, the “Inhibition of autoprocessing of the PR20 precursor” value was “no inhibition; also recorded: not inhibited”. In addition, the “Inhibition … initial screening” value in [3] (inhibitor 50 μM) is on record as “almost no inhibition”. The inhibition constant Ki at wild-type PR was 0.39 nM. In addition, the concentration for half-maximal inhibition (IC50) in data set [5] is 1000 to 2000 nM.

For the molecule `CC(C)CN(C[C@@H](O)[C@H](Cc1ccccc1)NC(=O)O[C@H]1CCOC1)S(=O)(=O)c1ccc(N)cc1` [APV, amprenavir], the “Difference in inhibition [autoprocessing, IC50/mature PR^S17, Ki]” value in [1] is on record as 682. In addition, the “Autoprocessing in the presence of inhibitor” value in data set [3] (inhibitor 5 μM) is reported as “complete autoprocessing”. Besides, in data set [3] (inhibitor 50 μM), the “Inhibition … initial screening” value is reported as “almost complete inhibition”. Further, the “Fold higher affinity for PR^S17 relative to PR20” value with mature PR^S17 [6] came out at 16 fold. For the same molecule, the “Relative resistance (PR^S17/PR)” value in the data set on mature PR^S17 [6] (Ki for PR^S17 (ITC) / Ki for PR) was found to be 55. Also, the Ki at wild-type PR is 0.2 nM; at PR20, approximately 178 nM.

For `COC(=O)N[C@H](C(=O)N[C@@H](Cc1ccccc1)[C@@H](O)CN(Cc1ccc(-c2ccccn2)cc1)NC(=O)[C@@H](NC(=O)OC)C(C)(C)C)C(C)(C)C` [ATV, atazanavir], in [1], the “Difference in inhibition [autoprocessing, IC50/mature PR^S17, Ki]” value was found to be 214. Also, the “Autoprocessing in the presence of inhibitor” value in [3] (inhibitor 10 μM) was “complete autoprocessing”. Further, on wild-type PR, the inhibitory constant (Ki) was 0.035 nM. The molecule also had a solubility in “physchem” of 42 µM (≈ 29.6 µg/mL). In addition, the “Relative resistance (PR^S17/PR)” value with mature PR^S17 [2] came to 2000.

With `CC(C)CN(C[C@@H](O)[C@H](Cc1ccccc1)NC(=O)O[C@H]1CO[C@H]2OCC[C@H]21)S(=O)(=O)c1ccc(N)cc1` [DRV, darunavir], in the data set on TFR-PR20, the “Inhibition of autoprocessing of the PR20 precursor” value is recorded as “no inhibition; also recorded: not inhibited”. Besides, the “Inhibition … initial screening” value in data set [3] (inhibitor 50 μM) is “almost complete inhibition”. Moreover, the Ki on wild-type PR was 0.005 nM. Also, in data set [5], the IC50 is 1000 to 2000 nM.

The values are drawn from paper PMC5013724 (Biochemistry, 2016).
